# According to patent publication US4704384A, “Aziridinyl quinone antitumor agents” (priority 1981, dated 1987):
# Values joined by “and” are separate entries in the source; they are usually repeats but may differ in a detail not shown here. Equal values may be shown once. “Also recorded” adds a separate entry of the source. Read-outs that look alike come from different tables or passages of the source.
# Experiments:
# [1] = Approximation of human dose from mouse optimum dose; conditions: approximated from optimum dose of 2 mg/kg in the mouse
# Method: Using the assumptions and constants of Freireich et al., Cancer Chemother. Rep., 50, 219 (1966), and an optimum dose of 2 mg/kg in the mouse, an average human maximum tolerated dose of 10 mg per dose can be approximated. An active dose range of 2.5-10 mg per dose can be estimated.
# Lewis lung carcinoma = Lewis lung carcinoma test (subcutaneous implant, IP drug); type: in vivo, murine
# Text: ^c Subcutaneous tumor implantation, ip QD515 treatment schedule.
# B16 melanocarcinoma = type: in vivo, murine
# lymphoid leukemia L1210 [2] = test system: lymphoid leukemia L1210
# Text: ^b Ip tumor implantation, ip QD19 treatment schedule.
# ^e ILS = [(treated survival + control survival) × 100%] - 100%
# The L1210, P388 and B16 test systems described in Table II utilize intraperitoneal (IP) tumor implantation and IP drug treatment while the Lewis lung system employs subcutaneous tumor implantation and IP treatment. All three CNS tumor models (Table III) use intracerebral (IC) tumor implantation and IP treatment.
# Aqueous saline solution (0.9%) was used as the drug vehicle. Normally, five doses were employed per experiment with the top dose chosen to produce toxicity. The lower doses were 50% of each preceeding dose.
# Consistent with NCI antitumor test protocols, intraperitoneal (IP) administration of the drug was employed with all five tumor systems investigated. Tumor implantation was IP in the systems designated IP leukemia L1210 and P388 as well as B16 melanoma. Intracerebral (IC) tumor implantation was utilized in the IC L1210 and ependymoblastoma tumor systems.
# lymphoid leukemia L1210 [3] = type: in vivo, murine
# Text: (§1) A third IC tumor model, the ependymoblastoma system, was also studied. This system requires intracerebral implantation of a solid tumor fragment while the IC L1210 and IC P388 systems utilize IC inoculated ascites tumor fluid. All three use IP drug treatment however. […] Cures (survivors from the group of six mice on the last day of the experiment) are indicated.
# [4] = test system: lymphocytic leukemia P388; test: Intracerebral (IC) P388 antitumor test; type: in vivo, murine; conditions: for ILS: IP
# Text: as §1
# ependymoblastoma = type: in vivo, murine; conditions: for survivors, EM: parentheses, per 6
# Text: ^c Ic tumor implantation, ip QD15 treatment schedule.
# as §1
# [5] = test system: lymphocytic leukemia P388; type: in vivo, murine; conditions: for survivors, P388: Table XI, parentheses, per 6
# [6] = Room temperature water solubility; type: physicochemical
# Method: In the following examples, all melting points are uncorrected and were recorded on a Thomas-Hoover capillary melting point apparatus. Elemental analyses were performed by NIAMDD, NIH, Bethesda, Md. Fluoranil, ethyleneimine and 2-methylethyleneimine were obtained commercially. […] New compounds were identified by nmr and ir spectroscopy. In the tetraamino derivatives, the methylene protons of the aziridine rings usually occurred as a singlet at δ2.0-2.2 in CDCl3 or DMSO-d6. This absorption appeared at δ2.40 (CDCl3) for compound 11. Carbonyl absorption frequencies (nujol mull) occurred in the range 1620-1640 cm^-1 for the tetraamino compounds. Satisfactory elemental analyses (+0.4% of calculated values) are indicated by elemental symbols in Table VII. Room temperature water solubilities were determined by the incremental addition (pipet) of water to a weighed amount of compound with shaking. The solubility values in Table VII must be considered as approximate.
# [7] = IP, QD1-9, 1.56 mg/kg/injection
# [8] = IP, QD1-9, 3.12 mg/kg/injection
# [9] = IP, QD1-9, 6.25 mg/kg/injection
structure (smiles),measurement,setting,value
"CCOC(=O)NC1=C(N2CC2)C(=O)C(NC(=O)OCC)=C(N2CC2)C1=O [Compound 9, 2,5-DIAZIRIDINYL-3,6-BIS(CARBOETHOXYAMINO)-1,4-BENZOQUINONE]",average human maximum tolerated dose,[1],~10 mg per dose
same,activity in Lewis lung,Lewis lung carcinoma,Marginal activity
same,ILS,"Lewis lung carcinoma; IP, 2.00 mg/kg/injection, 2 mg/kg",38% and 34%
same,OD,B16 melanocarcinoma,3.12 mg/kg
same,activity in B16 melanoma,B16 melanocarcinoma,very active
same,ILS,B16 melanocarcinoma; [7],38% and 44% and 58%
same,ILS,B16 melanocarcinoma; [8],58% and 43% and 70%
same,% ILS,"B16 melanocarcinoma; Table IV summary, QD1-9, at OD",94% and 70% and 62%
same,OD,"B16 melanocarcinoma; Table IV, QD1-9",3 mg/kg/injection
same,activity (ILS),"B16 melanocarcinoma; as high as, at OD of 3.12 mg/kg",≤ 70%
same,activity in IP L1210,lymphoid leukemia L1210 [2],greater L1210 activity on the QD1-9 schedule; also recorded: very active
same,ILS,"lymphoid leukemia L1210 [2]; IP, QD1-9, 0.88 mg/kg/injection",32%
same,ILS,"lymphoid leukemia L1210 [2]; IP, QD1-9, 1.30 mg/kg/injection",60%
same,ILS,"lymphoid leukemia L1210 [2]; IP, QD1-9, 2.00 mg/kg/injection",125%
same,ILS,lymphoid leukemia L1210 [2]; [9],27%
same,increase in life span (ILS),lymphoid leukemia L1210 [2]; Q4D and QD1-9 schedules,> 25%
same,% ILS,lymphoid leukemia L1210 [2]; Q4D schedule,54%
same,optimum dose (OD),"lymphoid leukemia L1210 [2]; QD1-9, mouse",2 mg/kg and 2 to 3 mg/kg
same,ILS,"lymphoid leukemia L1210 [2]; QD1-9, reproducible",> 100%
same,% ILS,"lymphoid leukemia L1210 [2]; Table IV summary, QD1-9, at OD",100%
same,OD,"lymphoid leukemia L1210 [2]; Table IV, QD1-9",3 mg/kg/injection and 2 mg/kg/injection and 4 mg/kg/injection
same,OD,lymphoid leukemia L1210 [3],3.12 mg/kg
same,activity in IC L1210,lymphoid leukemia L1210 [3],reproducible activity; also recorded: substantial
same,ILS,lymphoid leukemia L1210 [3]; [7],51% and 46%
same,ILS,lymphoid leukemia L1210 [3]; [8],84% and 79%
same,ILS,lymphoid leukemia L1210 [3]; [9],10% and 3%
same,% ILS,"lymphoid leukemia L1210 [3]; Table IV summary, QD1-9, at OD",84% and 79% and 63% and 58%
same,OD,"lymphoid leukemia L1210 [3]; Table IV, QD1-9",3 mg/kg/injection and 5 mg/kg/injection
same,ILS,lymphoid leukemia L1210 [3]; at OD 3.12 mg/kg,79% and 84%
same,activity in IC P388,[4],reproducible activity; also recorded: substantial
same,ILS,"[4]; QD1-9, 0.39 mg/kg/injection",7% and 2%
same,ILS,"[4]; QD1-9, 0.78 mg/kg/injection",27% and 25%
same,ILS,"[4]; QD1-9, 1.56 mg/kg/injection",37% and 51%
same,ILS,"[4]; QD1-9, 3.12 mg/kg/injection",39% and 31%
same,% ILS,"[4]; Table IV summary, QD1-9, at OD",51% and 39%
same,OD,"[4]; Table IV, QD1-9",1.5 mg/kg/injection and 3 mg/kg/injection
same,activity in ependymoblastoma,ependymoblastoma,curative in the EM system; also recorded: very active
same,optimum dose,ependymoblastoma,1 to 2 mg/kg
same,Cures (animals alive per six),"ependymoblastoma; 1.00 mg/kg/injection, day 60 (expts 136/144)",1/6 and 5/6
same,Cures (animals alive per six),"ependymoblastoma; 1.00 mg/kg/injection, day 99 (expt 133)",3/6
same,Cures (animals alive per six),"ependymoblastoma; 2.00 mg/kg/injection, day 60 (expts 136/144)",5/6
same,Cures (animals alive per six),"ependymoblastoma; 2.00 mg/kg/injection, day 99 (expt 133)",4/6
same,Cures (animals alive per six),"ependymoblastoma; 4.00 mg/kg/injection, day 60",4/6
same,ILS,"ependymoblastoma; QD1-5, 0.25 mg/kg/injection, expt 144",30%
same,ILS,"ependymoblastoma; QD1-5, 0.50 mg/kg/injection, expt 144",62%
same,ILS,"ependymoblastoma; QD1-5, 1.00 mg/kg/injection, expt 133 (day 99)",348%
same,ILS,"ependymoblastoma; QD1-5, 1.00 mg/kg/injection, expts 136/144 (day 60)",126% and 171%
same,ILS,"ependymoblastoma; QD1-5, 2.00 mg/kg/injection, expt 133 (day 99)",349%
same,ILS,"ependymoblastoma; QD1-5, 4.00 mg/kg/injection, expt 136 (day 60)",276%
same,OD,"ependymoblastoma; Table IV, QD1-5",2 mg/kg/injection and 1 mg/kg/injection
same,survivors of 6 test mice,"ependymoblastoma; Table IV, day 60",5 and 4 and 6
same,ILS (%) EM,"ependymoblastoma; Table XI, outstanding activity",277%
same,"survivors, EM",ependymoblastoma; Table XI,5
same,T-C weight change,"ependymoblastoma; day 5, 0.25 mg/kg/injection",-1.5 grams
same,T-C weight change,"ependymoblastoma; day 5, 0.50 mg/kg/injection",-1.8 grams
same,T-C weight change,"ependymoblastoma; day 5, 8.00 mg/kg/injection",-5.0 grams
same,activity in IP P388,[5],very active
same,optimum dose (OD),[5],1 to 2 mg/kg
same,ILS,"[5]; IP, QD1-9, 0.78 mg/kg/injection",111% and 99%
same,OD,"[5]; Table IV, QD1-9",1.6 mg/kg/injection and 0.8 mg/kg/injection
same,survivors of 6 test mice,"[5]; Table IV, day 30",1
same,"survivors, P388",[5],1
same,T-C weight change,"[5]; day 5, QD1-9, 6.25 mg/kg/injection",-6.1 grams
"NC1=C(N2CC2)C(=O)C(N)=C(N2CC2)C1=O [Compound 33, 2,5-DIZAIRIDINYL-3,6-DIAMINO-1,4-BENZOQUINONE]",ILS,"B16 melanocarcinoma; QD1-9, at OD, Table IX",31% and 19%
same,OD,"lymphoid leukemia L1210 [2]; Day 1 only (1 injection), Table VIII",1.0 mg/kg/injection and 0.5 mg/kg/injection
same,ILS,"lymphoid leukemia L1210 [2]; Q4D, at OD, Table VIII",161% and 124%
same,animals alive per 6,"lymphoid leukemia L1210 [2]; Q4D, day 30, at OD, Table VIII",3 and 2
same,OD,"lymphoid leukemia L1210 [2]; QD1-9 (9 injections), Table VIII",0.4 mg/kg/injection and 0.3 mg/kg/injection
same,ILS,"lymphoid leukemia L1210 [2]; QD1-9, at OD, Table VIII",115% and 100%
same,"survivors, IP L1210","lymphoid leukemia L1210 [2]; Table XI, parentheses, per 6",3
same,activity in IC L1210,lymphoid leukemia L1210 [3],most active; also recorded: significant activity
same,OD,"lymphoid leukemia L1210 [3]; QD1-9, Table X",0.3 mg/kg/injection
same,ILS,"lymphoid leukemia L1210 [3]; QD1-9, at OD, Table X",60% and 59%
same,activity in ependymoblastoma,ependymoblastoma,among the most active materials
same,OD,"ependymoblastoma; QD1-5, Table X",0.2 mg/kg/injection
same,ILS,"ependymoblastoma; QD1-5, at OD, Table X",215% and 177%
same,animals alive per 6,"ependymoblastoma; QD1-5, day 60, at OD, Table X",4 and 6
same,"survivors, EM",ependymoblastoma; Table XI,6
same,solubility,[6],so insoluble in any solvent
same,OD,"[5]; QD1-9, Table IX",0.2 mg/kg/injection
same,ILS,"[5]; QD1-9, at OD, Table IX",171% and 156%
same,animals alive per 6,"[5]; QD1-9, day 30, at OD, Table IX",1
same,"survivors, P388",[5],1
